# Measured values published in patent US4416826A, “Peresters and use thereof” (priority 1980, dated 1983).
# Key:
# [1] = Relative quantum yield of initiator decomposition in presence of monomer (IR at 1770 cm^-1); type: physicochemical; conditions: for relative quantum yield φrel of decomposition: chloroform, initiator 2 × 10^-2 M
# Description: (§1) Commercial styrene is washed three times with ice cold 2% NaOH solution followed by washing (four times) with distilled water. The styrene is dried over anhydrous CaCl2 and distilled under vacuum before use. The middle fraction of the distillate is used for polymerization. Solvents are purified by conventional means and distilled under N2 atmosphere.
# (§2) The irradiations are carried out in degassed (three cycles of freeze-thaw under high vacuum) sealed 15-mm Pyrex tubes. The tubes are placed in a merry-go-round with a filtered UV source of 366 nm at the center and the yield of polymer is measured (below 10% conversion) gravimetrically. In all of the cases, tubes of the same size and same volume of solution are used. Number-average molecular weights of the purified polymers are determined by viscometry in a benzene solution. After the polymerization, an aliquot of 0.5 ml from each reaction tube is placed in 2-ml volumetric flasks. The solvent and excess monomer are evaporated under high vacuum for several hours. The remaining flask contents are dissolved in 0.5 ml of benzene or chloroform and the polymer is precipitated by adding 0.5 ml of n-hexane. The solution then is centrifuged and the IR of the centrifugate is measured to determine undecomposed perester. All of the above procedures are carried out as far as possible in the dark. The light intensity is measured by benzophenone-benzhydrol actinometry and observed to be Io =6.56×10^17 quanta/min on the average. The temperature of the tubes is maintained at 30° C.
# The decomposition of the initiator employed is followed by IR at 1770 cm^-1 (caused by the carbonyl adjacent to the peroxy group) against an appropriate solvent blank. The initiators employed are .rho.-benzoylperoxybenzoic acid tert-butylester (Ia) and prior art benzophenone peroxide. In addition, the above procedure is repeated except that methyl methacrylate is employed in place of styrene. Table IX below illustrates the relative quantum yield for the decomposition of the initiators in the recited amounts of monomers, assuming that the quantum yield for the decomposition of the perester and peroxide in the absence of any monomer is one.
# [2] = Photopolymerization of styrene, radical efficiency; conditions: chloroform, [I] 5.00 × 10^-3 M
# Description: as §1, §2
# The efficiency of the radicals to initiate polymerization, f, in the absence of any appreciable amount of chain transfer, can be defined as [formula] assuming bimolecular termination by the combination of two growing chains only [formula] whereas kd =rate of decomposition of perester in mol/liter sec. in the absence of monomer (a function of light intensity).
# [3] = End group analysis of polystyrene by IR
# Description: The polystyrene obtained from each of the above polymerizations is purified by repeated (four times) precipitation from benzene solution with methanol. Before each precipitation, the benzene solution is centrifuged to remove any insoluble material. The finely powdered polymer is filtered and dried under vacuum for two days. Known amounts of polymer are dissolved in benzene and the IR is taken (2000-1500 cm^-1) against benzene in 0.1-mm NaCl cells. The peaks at 1730 and 1670 cm^-1 for the carbonyl groups, caused by ester and benzophenones, respectively, are measured. […] The extinction coefficient of the carbonyl group at 1730 cm^-1 is compared with that of authenticated methyl benzoylbenzoate, which is used as a model to measure the concentration of the ester end groups in the polymer. From the concentration of the ester and the extinction resulting from the carbonyl group in the benzophenone, the absorption caused by the benzophenone that is present as the ester can be calculated. The value is subtracted from the absorption obtained at 1670 cm^- 1 for the polymer. From the resulting absorption, the concentration of benzophenone alone is estimated from the known extinction of benzophenone at that wavelength.
# [4] = Solubility in benzene; type: physicochemical
# [5] = Exp. 7: chloroform, [I] 5.0 × 10^-3 M, styrene 3.61 M
# [6] = Exp. 8: chloroform, [I] 4.52 × 10^-3 M, styrene 4.33 M
# [7] = Exp. 9: chloroform, [I] 4.94 × 10^-3 M, styrene 5.88 M
smiles,measurement,setting,value
"O=C(OOC(=O)c1ccc(C(=O)c2ccccc2)cc1)c1ccc(C(=O)c2ccccc2)cc1 [Peroxide, reference compound]","effect of styrene on quantum yield of decomposition, in words",[1],the quenching effect being greater with the peroxide than the perester
same,relative quantum yield φrel of decomposition,[1]; styrene 2.18 M,0.05
same,relative quantum yield φrel of decomposition,[1]; styrene 2.23 M,0.06
same,relative quantum yield φrel of decomposition,[1]; styrene 4.26 M,0.08
same,Average degree of polymerization,[2]; [M] 3.61 M,159.6
same,Radical efficiency f,[2]; [M] 3.61 M,0.33
same,Rp × 10^5,[2]; [M] 3.61 M,1.07 mole/liter sec
same,φrel,[2]; [M] 3.61 M,0.08
same,Average degree of polymerization,[2]; [M] 4.33 M,155.8
same,Radical efficiency f,[2]; [M] 4.33 M,0.33
same,Rp × 10^5,[2]; [M] 4.33 M,1.04 mole/liter sec
same,φrel,[2]; [M] 4.33 M,0.08
same,Average degree of polymerization,[2]; [M] 5.88 M,372.9
same,Radical efficiency f,[2]; [M] 5.88 M,0.26
same,Rp × 10^5,[2]; [M] 5.88 M,1.72 mole/liter sec
same,φrel,[2]; [M] 5.88 M,0.08
same,"total number of benzophenones as end groups per chain, in words",[3],almost two
same,"end groups per chain, Benzophenone",[3]; [5],0.54
same,"end groups per chain, Benzophenone as ester",[3]; [5],1.29
same,"end groups per chain, Total",[3]; [5],1.83
same,"end groups per chain, Benzophenone",[3]; [6],0.62
same,"end groups per chain, Benzophenone as ester",[3]; [6],1.30
same,"end groups per chain, Total",[3]; [6],1.92
same,"end groups per chain, Benzophenone",[3]; [7],0.72
same,"end groups per chain, Benzophenone as ester",[3]; [7],1.36
same,"end groups per chain, Total",[3]; [7],2.08
same,solubility in benzene,[4],insoluble in benzene
